According to publication PMC9501899 (Journal of the American Chemical Society, 2022):
Read-outs that look alike come from different tables or passages of the source.

What was measured:
G2019S LRRK2 = biological target: T1, G2019S LRRK2 (Mus musculus, UniProt Q5S006, G2019S); assay: LRRK2 degradation in G2019S LRRK2 MEFs by Western blotting; assay type: cell-based; details: for Dmax: dose-dependent degradation
T1 construct: endogenous in cells; host or cells: G2019S LRRK2 MEFs
Description: (§1) These PROTACs were then biologically evaluated in mouse embryonic fibroblasts (MEFs) by Western blotting. Briefly, MEFs were treated with compounds at 33 nM and 1 μM for 4 h (Figure 2) and 24 h (Figure S2) separately, and the intracellular level of LRRK2, phosphorylated LRRK2 at Ser935, and phosphorylated Rab10 (pRab10) at Thr73 was determined. Rab10[5],[49] is one of the bona fide substrates of LRRK2, whose phosphorylation status is directly affected by the LRRK2 kinase activity and protein level. Phosphorylation of LRRK2 at Ser935 is a well-studied biomarker site used to assess the efficacy of type 1 LRRK2 inhibitors.[30]
(§2) Primary MEFs were generated as described in a previous study.[80] Briefly, the uterine horn was collected from adult female mice at day E12.5 and transferred to a 10 cm tissue culture dish containing cold PBS. Two forceps were used to tear the yolk sacs to isolate each embryo. Forceps were cleaned thoroughly with 70% ethanol between each embryo isolation. The embryos were culled, and a tissue piece was collected in a polymerase chain reaction (PCR) tube for genotyping. The red tissue of the embryo was removed, and the remainder was minced with a scalpel blade and incubated with a 7.5 mL trypsin–ethylenediaminetetraacetic acid (EDTA) solution for 10 min in a 37 °C, 5% CO2 tissue culture incubator. The dish was removed from the incubator and checked under a light microscope for single cells. Complete media (7.5 mL) was added to the trypsinized cells, and the cell suspension was transferred to a 15 mL Falcon tube and centrifuged at 1200 rpm for 5 min at room temperature. The trypsin was aspirated, the cell pellet was resuspended in a 5 mL fresh complete media, and the cell suspension was plated in a 60 mm tissue culture dish and incubated in a 37 °C, 5% CO2 tissue culture incubator. The MEFs at this stage were considered as passage 0 and were passaged and expanded for experimental use once the genotype was confirmed by allelic sequencing and immunoblotting. MEFs were cultured in Dulbecco’s modified Eagle’s medium (DMEM) containing 10% (v/v) fetal bovine serum (FBS), 2 mM L-glutamine, 100 U/mL penicillin, and 100 μg/mL streptomycin supplemented with 1× nonessential amino acids and 1 mM sodium pyruvate.
(§3) Culturing and passaging of adherent cell lines were carried out using an aseptic technique in CL1 or CL2 (for PBMC isolation) biological safety cabinets. All cells were incubated in a 37 °C incubator with 5% CO2. Cell lines were regularly tested for mycoplasma contamination. For Western blot assay, the cells were seeded in six-well plates. For immunoprecipitation of LRRK2, SH-SY5Y cells (cultured in DMEM-F12, supplemented with 15% (v/v) FBS, 100 U/mL penicillin and 100 μg/mL streptomycin, 1× nonessential amino acids, and 1 mM sodium pyruvate) were seeded in a 10 cm dish. All cells were treated with the indicated compounds such that the final concentration of DMSO was 0.1%. Following the treatment of cells with compounds at indicated concentrations and time periods, the media was removed and the cells were washed with PBS and lysed in a 100 μL ice-cold complete lysis buffer containing 50 mM tris–HCl pH 7.4, 1 mM EGTA, 10 mM 2-glycerophosphate, 50 mM sodium fluoride, 5 mM sodium pyrophosphate, 270 mM sucrose, supplemented with 1 μg/mL microcystin-LR, 1 mM sodium orthovanadate, complete EDTA-free protease inhibitor cocktail (Roche), and 1% (v/v) Triton X-100. The cells were immediately placed on ice and were scraped and collected into 1.5 mL Eppendorf tubes. Cell lysates were incubated on ice for 10 min prior to centrifugation at 15 000g at 4 °C for 15 min.

Rab10-pThr73 = assay: Rab10 dephosphorylation in G2019S LRRK2 MEFs by Western blotting; assay type: cell-based, mouse
Description: as §1, §2, §3

LRRK2-NanoLuc = biological target: T2, LRRK2-NanoLuc (Homo sapiens, UniProt Q5S007); assay: NanoBRET LRRK2 target engagement assay in HEK293 cells; assay type: binding; details: for IC50: permeabilized HEK293 cells
T2 construct: host or cells: HEK293
T2 sequence (Q5S007 whole entry): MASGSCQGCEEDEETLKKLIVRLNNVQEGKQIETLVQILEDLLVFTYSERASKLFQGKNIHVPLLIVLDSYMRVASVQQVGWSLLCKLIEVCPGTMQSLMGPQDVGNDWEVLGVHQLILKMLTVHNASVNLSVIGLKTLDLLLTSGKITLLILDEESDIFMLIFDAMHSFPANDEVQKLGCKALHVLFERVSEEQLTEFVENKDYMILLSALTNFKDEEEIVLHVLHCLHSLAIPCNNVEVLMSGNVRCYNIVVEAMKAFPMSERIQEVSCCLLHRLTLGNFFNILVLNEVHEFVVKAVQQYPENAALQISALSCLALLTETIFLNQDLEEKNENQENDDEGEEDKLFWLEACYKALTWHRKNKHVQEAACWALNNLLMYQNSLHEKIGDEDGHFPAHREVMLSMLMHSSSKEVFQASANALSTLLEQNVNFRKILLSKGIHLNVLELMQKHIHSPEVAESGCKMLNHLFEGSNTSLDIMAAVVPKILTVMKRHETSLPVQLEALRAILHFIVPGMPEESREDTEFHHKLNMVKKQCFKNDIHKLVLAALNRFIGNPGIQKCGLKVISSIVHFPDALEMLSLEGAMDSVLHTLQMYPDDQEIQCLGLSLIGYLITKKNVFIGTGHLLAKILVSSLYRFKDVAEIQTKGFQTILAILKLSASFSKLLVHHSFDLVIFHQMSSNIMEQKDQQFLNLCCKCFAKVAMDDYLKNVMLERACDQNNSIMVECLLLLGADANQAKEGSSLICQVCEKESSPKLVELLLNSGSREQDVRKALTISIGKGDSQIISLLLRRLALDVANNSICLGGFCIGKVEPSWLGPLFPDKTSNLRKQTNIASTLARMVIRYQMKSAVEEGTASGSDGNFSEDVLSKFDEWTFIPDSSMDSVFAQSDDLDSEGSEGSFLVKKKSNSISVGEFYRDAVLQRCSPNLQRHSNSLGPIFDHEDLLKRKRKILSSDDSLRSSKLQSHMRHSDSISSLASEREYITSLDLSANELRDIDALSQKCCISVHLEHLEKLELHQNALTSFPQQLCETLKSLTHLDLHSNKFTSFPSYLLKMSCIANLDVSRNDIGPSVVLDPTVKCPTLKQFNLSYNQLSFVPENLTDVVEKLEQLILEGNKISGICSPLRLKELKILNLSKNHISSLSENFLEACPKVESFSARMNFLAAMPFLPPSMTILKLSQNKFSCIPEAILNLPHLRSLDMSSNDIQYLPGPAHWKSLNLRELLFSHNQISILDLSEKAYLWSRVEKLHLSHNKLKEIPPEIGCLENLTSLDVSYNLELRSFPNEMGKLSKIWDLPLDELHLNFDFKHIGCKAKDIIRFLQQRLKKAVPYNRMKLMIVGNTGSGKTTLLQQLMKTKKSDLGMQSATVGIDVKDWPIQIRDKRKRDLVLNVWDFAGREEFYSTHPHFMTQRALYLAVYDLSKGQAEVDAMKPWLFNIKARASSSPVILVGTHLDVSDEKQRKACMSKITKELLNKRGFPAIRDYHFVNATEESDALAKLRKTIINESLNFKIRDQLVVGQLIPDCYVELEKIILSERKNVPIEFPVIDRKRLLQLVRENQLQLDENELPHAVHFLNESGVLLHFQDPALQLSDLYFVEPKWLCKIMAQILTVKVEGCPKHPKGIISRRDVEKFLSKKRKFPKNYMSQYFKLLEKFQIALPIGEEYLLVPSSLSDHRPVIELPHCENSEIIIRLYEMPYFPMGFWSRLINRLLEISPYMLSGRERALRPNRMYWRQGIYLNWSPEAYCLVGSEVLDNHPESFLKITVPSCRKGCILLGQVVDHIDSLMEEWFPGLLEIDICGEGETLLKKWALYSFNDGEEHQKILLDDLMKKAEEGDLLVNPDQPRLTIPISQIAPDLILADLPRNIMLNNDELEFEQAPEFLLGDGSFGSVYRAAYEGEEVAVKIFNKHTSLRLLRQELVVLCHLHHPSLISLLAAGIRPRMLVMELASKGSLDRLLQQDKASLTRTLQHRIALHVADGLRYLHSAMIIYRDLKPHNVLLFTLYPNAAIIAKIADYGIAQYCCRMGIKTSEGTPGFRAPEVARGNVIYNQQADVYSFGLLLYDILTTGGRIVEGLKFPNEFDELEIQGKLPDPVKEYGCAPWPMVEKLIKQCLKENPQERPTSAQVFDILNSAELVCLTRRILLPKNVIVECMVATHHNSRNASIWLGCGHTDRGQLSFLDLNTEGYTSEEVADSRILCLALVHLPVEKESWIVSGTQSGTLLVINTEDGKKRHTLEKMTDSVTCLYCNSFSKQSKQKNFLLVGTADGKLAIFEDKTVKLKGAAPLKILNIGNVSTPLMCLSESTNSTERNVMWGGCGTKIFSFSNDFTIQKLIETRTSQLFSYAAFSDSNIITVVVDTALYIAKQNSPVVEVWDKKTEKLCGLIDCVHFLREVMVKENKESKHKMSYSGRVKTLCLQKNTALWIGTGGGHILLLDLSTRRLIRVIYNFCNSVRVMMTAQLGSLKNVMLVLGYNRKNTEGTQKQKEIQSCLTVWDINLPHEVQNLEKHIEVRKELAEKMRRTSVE
Description: Figure 9 Binding affinities to VHL and LRRK2. (A) Binding affinity of the tested compounds to VHL using the FP assay. […] NanoBRET target engagement assays of tested compounds to VHL (B) and LRRK2 (C) in permeabilized and live-cell modes. The indicated compounds were titrated into HEK293 cells transfected with VHL-NanoLuc (B) or LRRK2-NanoLuc fusion (C) in the presence of VHL tracer (B) or LRRK2 tracer (C). 0.25 and 0.5 μM VHL tracers were used for the permeabilized and live mode VHL engagement assays separately. 0.125 and 0.5 μM of LRRK2 tracer were used for the permeabilized and live mode LRRK2 engagement assays separately. The fractional occupancy of the tracers is plotted against the tested compounds’ concentrations and fitted into “nonlinear regression, one site-log IC50” to obtain the IC50 values of each compound against both permeabilized and live cells, separately. Data points are presented as mean ± SEM from three independent experiments. (D) The IC50 ratios between permeabilized and live mode target engagements of each compound were used to compare their permeabilities.
For VHL and LRRK2 target engagement experiments in live and permeabilized cells, the HEK293 cells were transfected with the VHL-NanoLuc fusion vector (Promega, N275A) or LRRK2-NanoLuc fusion vector (Promega, NV3401) following Promega’s protocol and seeded into a white 384-well plate (Corning3570) at a density of 6000 cells/well. […] The filtered luminescence was measured within 10 min following the addition of the substrate on a GloMax Discover microplate reader (Promega) or a PHERAstar (BMG LABTECH) plate reader equipped with a 450 nm bandpass filter (donor) and a 600 nm long-pass filter (acceptor). […] The plates were then cooled down, and a NanoBRET NanoGlo Substrate and an Extracellular NanoLuc Inhibitor (Promega, N2160) were added before performing the same NanoBRET reading as the permeabilized mode on plate readers. […]

VHL-NanoLuc = biological target: T3, VHL-NanoLuc (Homo sapiens, UniProt P40337); assay: NanoBRET VHL target engagement assay in HEK293 cells; assay type: binding
T3 construct: host or cells: HEK293
Description: Figure 9 Binding affinities to VHL and LRRK2. (A) Binding affinity of the tested compounds to VHL using the FP assay. […] NanoBRET target engagement assays of tested compounds to VHL (B) and LRRK2 (C) in permeabilized and live-cell modes. The indicated compounds were titrated into HEK293 cells transfected with VHL-NanoLuc (B) or LRRK2-NanoLuc fusion (C) in the presence of VHL tracer (B) or LRRK2 tracer (C). 0.25 and 0.5 μM VHL tracers were used for the permeabilized and live mode VHL engagement assays separately. 0.125 and 0.5 μM of LRRK2 tracer were used for the permeabilized and live mode LRRK2 engagement assays separately. […]
For VHL and LRRK2 target engagement experiments in live and permeabilized cells, the HEK293 cells were transfected with the VHL-NanoLuc fusion vector (Promega, N275A) or LRRK2-NanoLuc fusion vector (Promega, NV3401) following Promega’s protocol and seeded into a white 384-well plate (Corning3570) at a density of 6000 cells/well. […] The filtered luminescence was measured within 10 min following the addition of the substrate on a GloMax Discover microplate reader (Promega) or a PHERAstar (BMG LABTECH) plate reader equipped with a 450 nm bandpass filter (donor) and a 600 nm long-pass filter (acceptor). […]

[1] = Mus musculus, 4 h, G2019S LRRK2 MEFs, read-out: EC50 G2019S pRab10
[2] = ratio used to compare permeabilities

T1 sequence (Q5S006 whole entry G2019S): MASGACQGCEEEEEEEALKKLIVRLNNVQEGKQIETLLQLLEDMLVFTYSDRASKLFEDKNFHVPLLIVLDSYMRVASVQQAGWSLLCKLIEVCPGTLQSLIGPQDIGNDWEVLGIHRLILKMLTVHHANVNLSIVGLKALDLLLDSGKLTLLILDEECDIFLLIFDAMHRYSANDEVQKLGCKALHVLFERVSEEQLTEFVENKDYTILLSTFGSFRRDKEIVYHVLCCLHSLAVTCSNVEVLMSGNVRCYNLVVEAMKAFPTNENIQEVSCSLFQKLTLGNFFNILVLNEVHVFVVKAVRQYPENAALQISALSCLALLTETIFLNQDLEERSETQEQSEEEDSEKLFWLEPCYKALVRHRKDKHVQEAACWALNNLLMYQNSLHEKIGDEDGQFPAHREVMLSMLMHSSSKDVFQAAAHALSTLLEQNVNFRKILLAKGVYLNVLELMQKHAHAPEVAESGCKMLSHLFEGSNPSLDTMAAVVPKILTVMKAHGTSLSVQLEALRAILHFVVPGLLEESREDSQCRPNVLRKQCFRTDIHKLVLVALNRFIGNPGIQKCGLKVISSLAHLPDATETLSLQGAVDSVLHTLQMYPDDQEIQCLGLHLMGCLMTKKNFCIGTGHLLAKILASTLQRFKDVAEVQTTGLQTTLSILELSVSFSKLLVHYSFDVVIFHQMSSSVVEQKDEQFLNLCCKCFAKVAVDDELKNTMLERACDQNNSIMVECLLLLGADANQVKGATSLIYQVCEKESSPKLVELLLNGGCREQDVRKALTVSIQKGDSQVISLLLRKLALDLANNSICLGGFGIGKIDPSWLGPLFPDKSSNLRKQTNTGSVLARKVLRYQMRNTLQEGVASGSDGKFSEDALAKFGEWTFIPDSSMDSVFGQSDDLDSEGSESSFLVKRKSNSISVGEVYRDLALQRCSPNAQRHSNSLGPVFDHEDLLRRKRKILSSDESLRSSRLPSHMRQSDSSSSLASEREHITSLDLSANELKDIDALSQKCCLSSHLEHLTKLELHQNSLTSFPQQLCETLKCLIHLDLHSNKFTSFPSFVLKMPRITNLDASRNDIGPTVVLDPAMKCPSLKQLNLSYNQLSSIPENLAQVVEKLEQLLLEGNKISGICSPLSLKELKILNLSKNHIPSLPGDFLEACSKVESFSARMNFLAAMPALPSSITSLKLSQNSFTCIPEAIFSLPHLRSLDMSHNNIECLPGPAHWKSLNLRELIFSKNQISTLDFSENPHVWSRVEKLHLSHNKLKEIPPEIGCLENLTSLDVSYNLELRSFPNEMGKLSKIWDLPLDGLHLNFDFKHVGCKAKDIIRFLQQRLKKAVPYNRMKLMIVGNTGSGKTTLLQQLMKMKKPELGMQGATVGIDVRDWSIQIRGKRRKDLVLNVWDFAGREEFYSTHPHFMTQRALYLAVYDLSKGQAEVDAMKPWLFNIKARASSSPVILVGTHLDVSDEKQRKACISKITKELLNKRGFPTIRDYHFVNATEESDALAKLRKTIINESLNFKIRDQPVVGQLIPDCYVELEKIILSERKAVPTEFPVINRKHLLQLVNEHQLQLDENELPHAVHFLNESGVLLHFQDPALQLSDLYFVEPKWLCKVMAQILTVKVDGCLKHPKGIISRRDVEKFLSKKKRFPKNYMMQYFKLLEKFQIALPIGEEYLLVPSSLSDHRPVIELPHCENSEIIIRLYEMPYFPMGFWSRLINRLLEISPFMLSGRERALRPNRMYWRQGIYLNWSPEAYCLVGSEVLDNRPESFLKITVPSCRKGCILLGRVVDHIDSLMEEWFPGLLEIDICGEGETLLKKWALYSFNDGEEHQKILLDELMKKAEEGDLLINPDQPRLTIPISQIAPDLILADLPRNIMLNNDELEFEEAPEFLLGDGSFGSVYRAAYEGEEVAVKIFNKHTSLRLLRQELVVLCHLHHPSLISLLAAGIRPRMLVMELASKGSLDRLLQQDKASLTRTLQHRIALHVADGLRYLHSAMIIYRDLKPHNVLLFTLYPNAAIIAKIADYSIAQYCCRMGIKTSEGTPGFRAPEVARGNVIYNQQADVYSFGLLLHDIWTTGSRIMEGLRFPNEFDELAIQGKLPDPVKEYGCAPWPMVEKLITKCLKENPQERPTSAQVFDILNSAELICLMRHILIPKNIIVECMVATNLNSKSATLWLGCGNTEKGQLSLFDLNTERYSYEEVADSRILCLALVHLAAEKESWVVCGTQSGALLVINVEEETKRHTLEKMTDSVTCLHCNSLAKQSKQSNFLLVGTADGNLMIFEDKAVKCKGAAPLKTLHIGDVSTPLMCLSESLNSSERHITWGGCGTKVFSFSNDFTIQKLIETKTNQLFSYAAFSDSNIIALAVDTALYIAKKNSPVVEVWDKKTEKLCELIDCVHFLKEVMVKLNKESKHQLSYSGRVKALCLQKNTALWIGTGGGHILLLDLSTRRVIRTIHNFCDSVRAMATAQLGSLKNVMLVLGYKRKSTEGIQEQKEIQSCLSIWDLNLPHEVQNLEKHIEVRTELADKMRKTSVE

CNc1nc(Nc2ccc(C(=O)N3CCN(C[C@H]4CC[C@H](CSC(C)(C)[C@H](NC(=O)C5(F)CC5)C(=O)N5C[C@@H](O)C[C@H]5C(=O)NCc5ccc(-c6scnc6C)cc5)CC4)CC3)cc2OC)ncc1Cl [cis-XL01126, (2S,4S)-1-((R)-3-((((1R,4R)-4-((4-(4-((5-Chloro-4-(methylamino)pyrimidin-2-yl)amino)-3-methoxybenzoyl)piperazin-1-yl)methyl)cyclohexyl)methyl)thio)-2-(1-fluorocyclopropane-1-carboxamido)-3-methylbutanoyl)-4-hydroxy-N-(4-(4-methylthiazol-5-yl)benzyl)pyrrolidine-2-carboxamide]
degradation of G2019S LRRK2 (in words) (G2019S LRRK2; 4 h): no degradation
EC50 (Rab10-pThr73; [1]): 116 nM

CNc1nc(Nc2ccc(C(=O)N3CCN(C[C@H]4CC[C@H](CSC(C)(C)[C@H](NC(=O)C5(F)CC5)C(=O)N5C[C@H](O)CC5C(=O)NCc5ccc(-c6scnc6C)cc5)CC4)CC3)cc2OC)ncc1Cl (stereo partly drawn) [XL01126, (2S,4R)-1-((R)-3-((((1R,4R)-4-((4-(4-((5-Chloro-4-(methylamino)pyrimidin-2-yl)amino)-3-methoxybenzoyl)piperazin-1-yl)methyl)cyclohexyl)methyl)thio)-2-(1-fluorocyclopropane-1-carboxamido)-3-methylbutanoyl)-4-hydroxy-N-(4-(4-methylthiazol-5-yl)benzyl)pyrrolidine-2-carboxamide]
DC50 (G2019S LRRK2; 4 h): 14 nM
inhibition at 0.033 µM (Rab10-pThr73; Mus musculus, 33 nM/4 h, G2019S LRRK2 MEFs, read-out: pRab10 inhibited): > 60%
EC50 (Rab10-pThr73; [1]): 15 nM
IC50 (LRRK2-NanoLuc): 2600 nM
IC50 (VHL-NanoLuc; permeabilized HEK293 cells): > 10 µM

CNc1nc(Nc2ccc(C(=O)N3CCN(C[C@H]4CC[C@@H](CSC(C)(C)[C@H](NC(=O)C5(F)CC5)C(=O)N5C[C@H](O)CC5C(=O)NCc5ccc(-c6scnc6C)cc5)CC4)CC3)cc2OC)ncc1Cl (stereo partly shown) [XL01134]
DC50 (G2019S LRRK2; 4 h): 7 nM
Dmax (G2019S LRRK2; 4 h, read-out: Dmax,4h (G2019S LRRK2)): 81%
pRab10 inhibited (Rab10-pThr73; 33 nM/4 h, G2019S LRRK2 MEFs): > 60%
IC50 (Rab10-pThr73; Mus musculus, 4 h, G2019S LRRK2 MEFs, read-out: GS-pRab10 IC50): 12 nM
IC50 (LRRK2-NanoLuc): 2000 nM

CNc1nc(Nc2ccc(C(=O)N3CCN(CCOCCOCCSC(C)(C)[C@H](NC(=O)C4(F)CC4)C(=O)N4C[C@H](O)C[C@H]4C(=O)NCc4ccc(-c5scnc5C)cc4)CC3)cc2OC)ncc1Cl [SD75]
Dmax at 1 µM (G2019S LRRK2; 1 μM (1000 nM), read-out: Dmax (G2019S LRRK2), time-dependent degradation): 81%
Dmax (G2019S LRRK2; 24 h, read-out: Dmax,24h (G2019S LRRK2)): 58%
GS-pRab10 percent label at the end of the time curve (Rab10-pThr73; 1 µM): 74%
pRab10 dephosphorylated (Rab10-pThr73; 1 µM): 75–90%
EC50 (Rab10-pThr73; Mus musculus, 24 h, G2019S LRRK2 MEFs, read-out: EC50 for the dephosphorylation of Rab10 (GS-pRab10)): 379 nM
LRRK2 IC50 Permeabilized/IC50 Live (LRRK2-NanoLuc; [2]): 0.43
VHL IC50 Permeabilized/IC50 Live (VHL-NanoLuc; [2]): 0.76
